# Reference: patent US10167262B2, “Herbicidal substituted 3-arylpyrazoles” (FMC CORPORATION, priority 2014, dated 2019)
# What was measured:
# Assay in all cases: Test E pre-/postemergence greenhouse test, plant response rating 0-100
# Format in all cases: in vivo
# [1] = system: large (Lg) crabgrass (Digitaria sanguinalis); conditions: Preemergence, scale 0 to 100
# [2] = system: smartweed (ladysthumb smartweed, Polygonum persicaria); conditions: Postemergence, scale 0 to 100
# kochia (Kochia scoparia) = conditions: Preemergence, scale 0 to 100
# Method in brief: (§1)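 Each species was tested both preemergence, with chemicals sprayed onto freshly planted silt loam, and postemergence, on plants 2 to 18 cm tall in a peat-based medium; the vehicle was a non-phytotoxic solvent mixture with surfactant. After 14 to 21 days in the greenhouse, growth was visually compared with controls and scored 0–100.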
# soybean (Glycine max) = conditions: scale 0 to 100; for Soybean plant response rating: Preemergence
# Method in brief: as §1
# [3] = system: velvetleaf (Abutilon theophrasti); conditions: Preemergence, scale 0 to 100
# Method in brief: as §1
# [4] = system: surinam grass (Brachiaria decumbens); conditions: Preemergence, scale 0 to 100
# Method in brief: as §1
# [5] = system: field bindweed (Convolvulus arvensis); conditions: scale 0 to 100; for Field Bindweed plant response rating: Preemergence
# Method in brief: as §1
# [6] = system: waterhemp (common waterhemp, Amaranthus rudis); conditions: scale 0 to 100; for Waterhemp plant response rating: Preemergence
# Method in brief: as §1
# [7] = system: ragweed (common ragweed, Ambrosia elatior); conditions: Preemergence, scale 0 to 100
# Method in brief: as §1
# [8] = system: green foxtail (Setaria viridis); conditions: Preemergence, scale 0 to 100
# [9] = system: johnsongrass (Sorghum halepense); conditions: Preemergence, scale 0 to 100
# [10] = system: smartweed (ladysthumb smartweed, Polygonum persicaria); conditions: Preemergence, scale 0 to 100
# [11] = system: yellow nutsedge (Cyperus esculentus); conditions: Preemergence, scale 0 to 100
# [12] = system: giant foxtail (Setaria faberii); conditions: Preemergence, scale 0 to 100
# [13] = system: morningglory (Ipomoea coccinea); conditions: Preemergence, scale 0 to 100
# [14] = system: goosegrass (Eleusine indica); conditions: Preemergence, scale 0 to 100
structure (smiles),measurement,setting,value
"O=C(c1ccccc1)c1cn(CO)nc1-c1cc(Cl)cc(Cl)c1 [Compound 15, [3-(3,5-dichlorophenyl)-1-(hydroxymethyl)-1H-pyrazol-4-yl]phenylmethanone]","Crabgrass, Large plant response rating",[1]; 31 g ai/ha,0
same,"Crabgrass, Large plant response rating",[1]; 62 g ai/ha,0
same,"Crabgrass, Large plant response rating",[1]; 125 g ai/ha,0
same,"Crabgrass, Large plant response rating",[1]; 250 g ai/ha,0
same,"Crabgrass, Large plant response rating",[1]; 500 g ai/ha,0
same,"Plant response rating, Smartweed",[2]; 31 g ai/ha,0
same,"Plant response rating, Smartweed",[2]; 62 g ai/ha,75
same,Kochia plant response rating,kochia (Kochia scoparia); 31 g ai/ha,0
same,Kochia plant response rating,kochia (Kochia scoparia); 62 g ai/ha,40
same,Kochia plant response rating,kochia (Kochia scoparia); 125 g ai/ha,20
same,Kochia plant response rating,kochia (Kochia scoparia); 250 g ai/ha,75
same,Kochia plant response rating,kochia (Kochia scoparia); 500 g ai/ha,80
same,plant injury at 31 g/ha,"soybean (Glycine max); Glycine max, post-emergence, Postemergence, 31 g ai/ha",0%
same,plant injury at 62 g/ha,"soybean (Glycine max); Glycine max, post-emergence, Postemergence, 62 g ai/ha",0%
same,plant injury at 125 g/ha,"soybean (Glycine max); Glycine max, post-emergence, Postemergence, 125 g ai/ha",0%
same,plant injury at 250 g/ha,"soybean (Glycine max); Glycine max, post-emergence, Postemergence, 250 g ai/ha",0%
same,plant injury at 500 g/ha,"soybean (Glycine max); Glycine max, post-emergence, Postemergence, 500 g ai/ha",0%
same,Soybean plant response rating,soybean (Glycine max); 31 g ai/ha,0
same,Soybean plant response rating,soybean (Glycine max); 62 g ai/ha,0
same,Soybean plant response rating,soybean (Glycine max); 125 g ai/ha,0
same,Soybean plant response rating,soybean (Glycine max); 250 g ai/ha,0
same,Soybean plant response rating,soybean (Glycine max); 500 g ai/ha,0
same,Velvetleaf plant response rating,[3]; 31 g ai/ha,20
same,Velvetleaf plant response rating,[3]; 62 g ai/ha,25
same,Velvetleaf plant response rating,[3]; 125 g ai/ha,35
same,Velvetleaf plant response rating,[3]; 250 g ai/ha,65
same,Velvetleaf plant response rating,[3]; 500 g ai/ha,100
same,Surinam Grass plant response rating,[4]; 31 g ai/ha,0
same,Surinam Grass plant response rating,[4]; 62 g ai/ha,0
same,Surinam Grass plant response rating,[4]; 125 g ai/ha,0
same,Surinam Grass plant response rating,[4]; 250 g ai/ha,0
same,Surinam Grass plant response rating,[4]; 500 g ai/ha,0
same,pest or weed control at 31 g/ha,"[5]; Convolvulus arvensis, post-emergence, Postemergence, 31 g ai/ha",0%
same,pest or weed control at 62 g/ha,"[5]; Convolvulus arvensis, post-emergence, Postemergence, 62 g ai/ha",0%
same,pest or weed control at 125 g/ha,"[5]; Convolvulus arvensis, post-emergence, Postemergence, 125 g ai/ha",0%
same,pest or weed control at 250 g/ha,"[5]; Convolvulus arvensis, post-emergence, Postemergence, 250 g ai/ha",0%
same,pest or weed control at 500 g/ha,"[5]; Convolvulus arvensis, post-emergence, Postemergence, 500 g ai/ha",0%
same,Field Bindweed plant response rating,[5]; 31 g ai/ha,0
same,Field Bindweed plant response rating,[5]; 62 g ai/ha,0
same,Field Bindweed plant response rating,[5]; 125 g ai/ha,0
same,Field Bindweed plant response rating,[5]; 250 g ai/ha,0
same,Field Bindweed plant response rating,[5]; 500 g ai/ha,0
same,pest or weed control at 31 g/ha,"[6]; Amaranthus tuberculatus, post-emergence, Postemergence, 31 g ai/ha",80%
same,pest or weed control at 62 g/ha,"[6]; Amaranthus tuberculatus, post-emergence, Postemergence, 62 g ai/ha",98%
same,pest or weed control at 125 g/ha,"[6]; Amaranthus tuberculatus, post-emergence, Postemergence, 125 g ai/ha",95%
same,pest or weed control at 250 g/ha,"[6]; Amaranthus tuberculatus, post-emergence, Postemergence, 250 g ai/ha",100%
same,pest or weed control at 500 g/ha,"[6]; Amaranthus tuberculatus, post-emergence, Postemergence, 500 g ai/ha",100%
same,Waterhemp plant response rating,[6]; 31 g ai/ha,0
same,Waterhemp plant response rating,[6]; 62 g ai/ha,70
same,Waterhemp plant response rating,[6]; 125 g ai/ha,90
same,Waterhemp plant response rating,[6]; 250 g ai/ha,75
same,Waterhemp plant response rating,[6]; 500 g ai/ha,100
same,Ragweed plant response rating,[7]; 31 g ai/ha,0
same,Ragweed plant response rating,[7]; 62 g ai/ha,0
same,Ragweed plant response rating,[7]; 125 g ai/ha,0
same,Ragweed plant response rating,[7]; 250 g ai/ha,95
same,Ragweed plant response rating,[7]; 500 g ai/ha,100
same,"Foxtail, Green plant response rating",[8]; 31 g ai/ha,0
same,"Foxtail, Green plant response rating",[8]; 62 g ai/ha,0
same,"Foxtail, Green plant response rating",[8]; 125 g ai/ha,0
same,"Foxtail, Green plant response rating",[8]; 250 g ai/ha,0
same,"Foxtail, Green plant response rating",[8]; 500 g ai/ha,0
same,Johnsongrass plant response rating,[9]; 31 g ai/ha,0
same,Johnsongrass plant response rating,[9]; 62 g ai/ha,0
same,Johnsongrass plant response rating,[9]; 125 g ai/ha,0
same,Johnsongrass plant response rating,[9]; 250 g ai/ha,0
same,Johnsongrass plant response rating,[9]; 500 g ai/ha,0
same,Smartweed plant response rating,[10]; 31 g ai/ha,0
same,Smartweed plant response rating,[10]; 62 g ai/ha,0
same,Smartweed plant response rating,[10]; 125 g ai/ha,0
same,Smartweed plant response rating,[10]; 250 g ai/ha,100
same,Smartweed plant response rating,[10]; 500 g ai/ha,100
same,"Nutsedge, Yellow plant response rating",[11]; 31 g ai/ha,15
same,"Nutsedge, Yellow plant response rating",[11]; 62 g ai/ha,35
same,"Nutsedge, Yellow plant response rating",[11]; 125 g ai/ha,10
same,"Nutsedge, Yellow plant response rating",[11]; 250 g ai/ha,0
same,"Nutsedge, Yellow plant response rating",[11]; 500 g ai/ha,0
same,"Foxtail, Giant plant response rating",[12]; 31 g ai/ha,0
same,"Foxtail, Giant plant response rating",[12]; 62 g ai/ha,0
same,"Foxtail, Giant plant response rating",[12]; 125 g ai/ha,0
same,"Foxtail, Giant plant response rating",[12]; 250 g ai/ha,0
same,"Foxtail, Giant plant response rating",[12]; 500 g ai/ha,0
same,Morningglory plant response rating,[13]; 62 g ai/ha,0
same,Morningglory plant response rating,[13]; 125 g ai/ha,0
same,Morningglory plant response rating,[13]; 250 g ai/ha,0
same,Morningglory plant response rating,[13]; 500 g ai/ha,0
same,Goosegrass plant response rating,[14]; 31 g ai/ha,0
same,Goosegrass plant response rating,[14]; 125 g ai/ha,0
same,Goosegrass plant response rating,[14]; 250 g ai/ha,0
same,Goosegrass plant response rating,[14]; 500 g ai/ha,0
